The record followed here is patent publication US20100249064A1, “METHODS AND COMPOSITIONS FOR TREATING DISEASES AND CONDITIONS INVOLVING HIGHER MOLECULAR WEIGHT HYALURONAN” (University of Chicago, priority 2007, published 2010).

The test system of one assay is RhoA and Rac. Put plainly: Rho family activation assay. The format is cell-based, human. The note with it: 100 nM HA; for Rac1 activation: LMW-HA 5 min, HMW-HA 5, 15, 30 min. How it is done: Rho Family Activation Assay—The RhoA and Rac activation assays using human lung EC were performed as described (Ren et al., 1999).
For the next assay, the system named is HABP2. Put plainly: HABP2 protein expression in EC by immunoblotting. It is filed as cell-based, human. As to conditions: 100 nM HA, EC lysates, immunoblot. How it is done: Immunoblotting. Proteins in the EC lysates or mouse lung homogenates were solubilized in solubilization buffer, separated on SDS-PAGE, and analyzed by immunoblotting with specific antisera and HRP conjugated secondary antibody with enhanced chemiluminescence detection (Amersham Biosciences).
Treatment with LPS, low and high MW hyaluronan. EC were treated with 1.0 μg/ml LPS, 100 nM HMW-HA (˜1 million Daltons) or 100 nM LMW-HA (˜2,500 Daltons) for 24 hours and EC media and lysates were obtained.
Cell culture preparation and treatment. Human pulmonary microvascular EC (HPMVEC) (Cambrex), grown in EBM-2 complete medium (Cambrex) at 37° C. in a humidified atmosphere of 5% CO2, 95% air, with passages 6-10 used for experimentation will be treated with or without 1.0 μg/ml LPS, 100 nM HMW-HA and/or 100 nM LMW-HA in the presence or absence of exogenous purified recombinant HABP2 polyanion binding domain and/or C1INH (Novus Biologicals), HABP2 and/or C1INH overexpression vector or siRNA (scramble, HABP2, C1INH, PAR-1, PAR-2, PAR-3, PAR-4, tenascin-C or perlecan) or the potent hyaluronidase inhibitor, L-ascorbic acid 6-hexadecanoate (Botzki et al., 2004) (Sigma). Extracellular media and/or treated EC will either be analyzed for protein expression, HABP2 protease activity, hyaluronidase activity or Trans-endothelial Electrical Resistance (TER). […]
Background: Immunoblotting shows a protein as a band on a membrane.

The test system of a further assay is S1P1 and S1P3 Receptor. Put plainly: Tyrosine/serine/threonine phosphorylation of S1P receptors. It is filed as cell-based, human. As to conditions: 100 nM HA. How it is done: Determination of Tyrosine/Serine/Threonine Phosphorylation of the S1P1 and S1P3 Receptor—Immunoprecipitation of solubilized proteins in IP buffer B (see above) took place with either rabbit anti-S1P1 receptor or mouse anti-S1P3 receptor antibody, which was followed by SDS-PAGE in 4-15% polyacrylamide gels and transfer onto Immobilon™ membranes (Millipore Corp., Bedford, Mass.). Following blockage of nonspecific sites with 5% bovine serum albumin, the blots were incubated with either rabbit anti-S1P1 antibody, mouse anti-S1P3 antibody, mouse anti-phospho-tyrosine, rabbit anti-phospho-serine antibody or rabbit anti-phospho-threonine antibody, and then incubated with horseradish peroxidase (HRP)-labeled goat anti-rabbit or goat anti-mouse IgG. Enhanced chemiluminescence (Amersham Biosciences) for visualization of immunoreactive bands then took place.

Assay [1] has as its system LPS-induced murine lung vascular permeability. Put plainly: LPS-induced murine lung vascular permeability, bronchioalveolar lavage (BAL) protein and cytokines. The format is in vivo, mouse. The note with it: for LPS-induced pulmonary hyper-permeability (BAL protein concentration): wildtype C57BL/6J mice, LPS 2.5 mg/kg intratracheally, HMW-HA 1.5 mg/kg or HGF 50 μg/kg intravenously 4 hours after LPS, BAL at 24 hours. As for the experimental part:
Animal Preparation and Treatment—Male C57BL/6J and CD44 knockout mice (8-10 weeks, Jackson Laboratories, Bar Harbor, Me.) were anesthetized with intraperitoneal ketamine (150 mg/kg) and acetylpromazine (15 mg/kg) according to approved protocols. LPS (2.5 mg/kg) or saline (control) were instilled intratracheally and four hours later, HGF (50 μg/kg) or saline control delivered intravenously through the internal jugular vein. The animals were allowed to recover for 24 h followed by bronchioalveolar lavage protein analysis and/or lung immunohistochemistry.
Determination of Bronchioalveolar Lavage Protein Concentration—Bronchioalveolar lavage (BAL) was performed by an intratracheal injection of 1 cc of Hank's balanced salt solution followed by gentle aspiration. The recovered fluid was processed for protein concentration (BCA Protein Assay Kit; Pierce Chemical Co., Rockford, Ill.) as described (Su et al., 2004).
Animals. Male C57BL/6J mice, CD44 knockout mice, Caveolin-1 knockout mice (8-10 weeks, Jackson Laboratories, Bar Harbor, Me.) were anesthetized with intraperitoneal ketamine (150 mg/kg) and acetylpromazine (15 mg/kg) according to approved protocols. LPS (2.5 mg/kg) or saline (control) were instilled intratracheally and four hours later, HMW-HA (1.5 mg/kg) or saline control delivered intravenously through the internal jugular vein. The animals were allowed to recover for 24 hours followed by bronchioalveolar lavage protein analysis and/or lung immunohistochemistry.
Determination of protein concentration. Total protein concentration. TGF-alpha concentration. TGF-beta1 concentration. Bronchioalveolar lavage (BAL) was performed by an intratracheal injection of 1 cc of Hank's balanced salt solution followed by gentle aspiration. The recovered fluid was processed for protein concentration (BCA Protein Assay Kit; Pierce Chemical Co., Rockford, Ill.) or used to determine TNF-α and TGF-β1 concentrations using quantitative sandwich enzyme immunoassays (R & D Systems, Minneapolis, Minn.).
Animal Preparation and Treatment. Male C57BL/6J, B6129N2, CD44^−/− or caveolin-1^−/− mice (8-10 weeks, Jackson Laboratories, Bar Harbor, Me.) were anesthetized with intraperitoneal ketamine (150 mg/kg) and acetylpromazine (15 mg/kg) before exposure of the right internal jugular vein via neck incision. LPS (2.5 mg/kg) or water (control) were instilled intratracheally. Four hours later, mice receive high MW HA (1.5 mg/kg) or water control through the internal jugular vein. The animals were allowed to recover for 24 hours after LPS before bronchioalveolar lavage protein and cytokine concentration and/or lung immunohistochemistry/immunoblot analysis (Peng et al., 2004).
Determination of Bronchoavleolar Lavage Protein and Cytokine Concentration. Bronchioalveolar lavage (BAL) was performed by an intratracheal injection of 1 cc of Hank's balanced salt solution followed by gentle aspiration. The recovered fluid was processed for protein concentration (BCA Protein Assay Kit; Pierce Chemical Co., Rockford, Ill.) (Peng et. al., 2004). Cytokines (IL-6, TNFalpha) were measured using a Quantikine sandwich ELISA kit (R & D Systems).

The mark [2] stands for this setting: wild type mice, LPS 2.5 mg/kg, HMW-HA 1.5 mg/kg i.v. after 4 hours.

“Also recorded” adds a separate entry of the source.

As to hyaluronan [LMW-HA, reference compound], in the assay on RhoA and Rac (15-30 min), the RhoA activation entry is given as “promoted RhoA activation”. In addition, the Rac1 activation entry with RhoA and Rac is recorded as “induced Rac1 activation”. Also, the “HABP2 protein expression in EC” value in the assay on HABP2 (listed as low molecular weight (MW) hyaluronan) is given as “significantly enhanced”. The S1P receptor phosphorylation entry in the assay on S1P1 and S1P3 Receptor is “induced sequential AKT1-mediated S1P1 and Src/ROCK1/2-mediated S1P3 receptor phosphorylation/activation”.
Turning to hyaluronan [HMW-HA], the “protective effect on LPS-induced pulmonary hyper-permeability (BAL) in knockout mice” value in assay [1] (CD44 knockout (and, where stated, Caveolin-1 knockout) mice, same regimen) was “markedly attenuated in the CD44 knockout mouse; also recorded: did not protect from LPS-induced ALI in CD44 and Caveolin-1 knockout mice; also recorded: protection was blocked in the CD44 knockout mouse; also recorded: but not the CD44 knockout”. For the same substance, the “TGF-alpha concentration in BAL fluids” value in assay [1] (setting [2]) is listed as “reduced the enhancing effect of LPS”. The “TGF-beta1 concentration in BAL fluids” value in assay [1] (setting [2]) was “reduced the enhancing effect of LPS”. The “LPS-induced pulmonary hyper-permeability (BAL protein concentration)” value in assay [1] was “pulmonary hyper-permeability was attenuated; also recorded: significant difference (p<0.05) between LPS and HMW-HA+LPS treatment in the wildtype”; in assay [1] (listed as HWM-HA), “protected from LPS-induced vascular leakiness in vivo”; in assay [1] (listed as High MW hyaluronan) it was “reduced the enhancing effect of LPS on BAL protein concentration”; in assay [1] (listed as high MW HA), “attenuated the vascular hyper-permeability”. The Rac1 activation result in the assay with RhoA and Rac is “induced Rac1 activation”. The “HABP2 protein expression in EC” value in the assay on HABP2 (listed as high MW hyaluronan) is “reduced”. The S1P receptor phosphorylation result with S1P1 and S1P3 Receptor was “promoted AKT1-mediated threonine phosphorylation of S1P1 receptor”.
